# Measured values taken from patent US20090263429A1, “Method of Preparing a Hydrogel” (The University of Manchester, priority 2005, published 2009).
# Experiment: 96 well screen of Fmoc/Cbz-amino acid and dipeptide with thermolysin (gelation)
# Format: physicochemical
# Conditions: Fmoc-G and GG with thermolysin, 20 mM Fmoc-aa, 48 hours at room temperature
# Protocol: Fmoc-amino acids or Cbz-amino acids with dipeptides were weighed in to a clean universal to the different concentrations and the various ratios required. They were then suspended in deionised water, and solubilized by the addition of 0.5M NaOH to adjust the pH to 13. The particle size was reduced through the reduction of larger clumps by gentle manipulation with a spatula, and the subsequent immersion in a sonication bath. […] The pH was reduced by the addition dropwise from a 200 μl pipette of 0.1 M HCl with gentle vortexing until the value reached 7. […] Upon acquisition of a neutral pH, de-ionised water was added up to the required volume.
# The enzyme, thermolysin, was provided in the form of a lyphophilized powder. This was weighed to a sterile universal, and then reconstituted in distilled water to a concentration of 1 mg/ml. In order to ensure the enzyme was fully solubilised, the solution was vortexed for thirty seconds, and stored at room temperature within a sealed container and used within thirty minutes. […]
# A 96 well format was developed to screen large numbers of combinations of reactant ratios and concentrations. […] Relative quantities of these were added. […] Sufficient quantities of distilled water were added to make up to a final volume of […]. […] Results of the reactions were measured by HPLC, and the degree of conversion of Fmoc/Cbz-amino acid to Fmoc/Cbz-tripeptide was calculated.
substance,measurement,value
Fmoc-triGlycine [Fmoc-GGG],gel formation,doesn't form a gel
